This note sets out measurements from ChEMBL document CHEMBL2069167, “Synthesis and structure-activity relationship of (1-halo-2-naphthyl) carbamate-based inhibitors of KIAA1363 (NCEH1/AADACL1)” (Bioorg Med Chem Lett, 2012).

SMILES strings stand for the structures.

The target in assay [1] is T1, Neutral cholesterol ester hydrolase 1 (Homo sapiens, UniProt Q6PIU2).
T1 sequence (Q6PIU2 whole entry): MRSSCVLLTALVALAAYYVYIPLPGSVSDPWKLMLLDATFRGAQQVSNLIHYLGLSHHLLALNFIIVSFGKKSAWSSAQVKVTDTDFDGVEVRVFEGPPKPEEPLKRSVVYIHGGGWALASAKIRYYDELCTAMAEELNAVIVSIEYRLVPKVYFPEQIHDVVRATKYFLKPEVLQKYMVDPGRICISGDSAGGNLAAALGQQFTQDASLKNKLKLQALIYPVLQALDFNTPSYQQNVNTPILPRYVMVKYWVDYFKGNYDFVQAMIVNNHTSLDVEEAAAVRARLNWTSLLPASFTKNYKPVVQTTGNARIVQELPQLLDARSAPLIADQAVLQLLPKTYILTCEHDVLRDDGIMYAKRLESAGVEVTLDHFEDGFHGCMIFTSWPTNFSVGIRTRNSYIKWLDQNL
Put plainly: Inhibition of human KIAA1363 expressed in 293T/17 cells using 2-thioacetyl MAGE as substrate preincubated for 20 mins measured after 1 hr. It counts as cell-based.

The test system of assay [2] is Mus musculus. Put plainly: Inhibition of KIAA1363 in tumor of SCID mouse xenografted with human SK-OV-3 cells at 100 mg/kg, po after 2 hrs by fluorescence assay. To be noted: SK-OV-3, 2 h. It counts as functional. On the technique in general: In xenograft studies the graft and the host belong to different species.
In assay [3] the test system is Mus musculus. Put plainly: Inhibition of KIAA1363 in tumor of SCID mouse xenografted with human SK-OV-3 cells at 100 mg/kg, ip after 2 hrs by fluorescence assay. The conditions noted are these: SK-OV-3, ip, route intraperitoneal. It counts as functional.
In assay [4] the test system is Mus musculus. Put plainly: Inhibition of KIAA1363 in heart of SCID mouse at 100 mg/kg, ip after 2 hrs by fluorescence assay. It counts as functional. To be noted: route intraperitoneal.

As to `CN(C)C(=O)Oc1ccc2ccccc2c1` [NAPHTHALEN-2-YL DIMETHYLCARBAMATE], the 50% inhibitory concentration (IC50) (as a rule, the concentration at which inhibition is half-maximal) in assay [1] was > 100 µM.

With `CN(C)C(=O)Oc1ccc2cc(C#N)ccc2c1Br`, in assay [2], at 100 mg/kg the inhibition in vivo was 14%.

With `CCCc1ccc2c(Br)c(OC(=O)N(C)C)ccc2c1`, the results for the inhibition in vivo at 100 mg/kg in assay [2], in assay [3] and in assay [4] were 22%, 64% and 66%, respectively.

With `CN(C)C(=O)Oc1ccc2ccccc2c1C#N`, the concentration for half-maximal inhibition (IC50) in assay [1] is > 100 µM.

For the compound `CN(C)C(=O)Oc1ccc2cc(Br)ccc2c1Br`, the inhibition in vivo (as a rule, the relative decrease from the control value, in per cent) at 100 mg/kg in assay [2] is 18%.

In the case of `CN(C)C(=O)Oc1ccccc1Br`, the IC50 in assay [1] was > 100 µM.

In assay [1], `CN(C)C(=O)Oc1ccc2ccccc2c1Cl` had an IC50 of 1.1 µM.
